Laboratory results from patent US9120807B2, “Thienopyrimidine compounds” (Vernalis (R&D) Ltd., priority 2007, dated 2015).

Legend:
Assay type in all cases: cell-based
[1] = target: human adenosine A3 receptor (Homo sapiens (Human), UniProt P0DMS8); assay: FLIPR calcium flux functional assay, A3 receptor; conditions: for Kb: mammalian cell line expressing human A3, calcium flux; for A3/A2b: selectivity ratio of Kb values
Experimental: (§1) The use of a Fluorometric Imaging Plate Reader (FLIPR) to measure calcium flux in Adenosine-receptor expressing cells is a well-established technique. In this assay calcium flux is triggered by receptor activation and measured through the fluorescence of an incorporated calcium-sensitive dye. The potencies shown were determined using expressed human adenosine A2B receptors in mammalian cell lines. Selectivity values were obtained by using mammalian cell lines expressing the human adenosine A1, A2A and A3 receptors. Compound potency was determined from dose response curves and is reported as an IC50 value.
(§2) All examples were tested for activity in the functional assay described above.

[2] = target: human adenosine A1 receptor (Homo sapiens (Human), UniProt P30542); assay: FLIPR calcium flux functional assay, A1 receptor; conditions: for Kb: mammalian cell line expressing human A1, calcium flux; for A1/A2b: selectivity ratio of Kb values
human adenosine A1 receptor, sequence (P30542 whole entry): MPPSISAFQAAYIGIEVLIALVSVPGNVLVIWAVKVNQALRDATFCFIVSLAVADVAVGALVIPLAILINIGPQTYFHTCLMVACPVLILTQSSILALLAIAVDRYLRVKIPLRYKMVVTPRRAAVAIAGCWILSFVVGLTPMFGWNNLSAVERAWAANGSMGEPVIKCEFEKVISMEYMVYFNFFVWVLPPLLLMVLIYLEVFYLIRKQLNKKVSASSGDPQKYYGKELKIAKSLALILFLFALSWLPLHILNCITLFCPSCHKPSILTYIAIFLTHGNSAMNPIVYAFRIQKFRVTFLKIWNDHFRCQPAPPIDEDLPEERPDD
Experimental: as §1, §2

[3] = target: human adenosine A2A receptor (Homo sapiens (Human), UniProt P29274); assay: FLIPR calcium flux functional assay, A2A receptor; conditions: for Kb: mammalian cell line expressing human A2A, calcium flux; for A2a/A2b: selectivity ratio of Kb values
human adenosine A2A receptor, sequence (P29274 whole entry): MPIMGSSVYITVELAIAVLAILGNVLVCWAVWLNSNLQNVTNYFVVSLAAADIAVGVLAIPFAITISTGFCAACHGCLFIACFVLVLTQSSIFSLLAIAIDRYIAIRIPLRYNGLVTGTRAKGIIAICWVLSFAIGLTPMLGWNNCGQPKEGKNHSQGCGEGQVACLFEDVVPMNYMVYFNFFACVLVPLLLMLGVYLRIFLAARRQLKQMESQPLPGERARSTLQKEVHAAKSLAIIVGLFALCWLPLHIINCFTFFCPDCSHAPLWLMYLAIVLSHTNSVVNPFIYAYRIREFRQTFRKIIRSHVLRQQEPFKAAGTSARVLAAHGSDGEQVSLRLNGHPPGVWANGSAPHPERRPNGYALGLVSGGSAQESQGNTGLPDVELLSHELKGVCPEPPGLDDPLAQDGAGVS
Experimental: as §1, §2

[4] = target: human adenosine A2B receptors (Homo sapiens (Human), UniProt P29275); assay: FLIPR calcium flux functional assay, A2B receptor; conditions: mammalian cell line expressing human A2B
human adenosine A2B receptors, sequence (P29275 whole entry): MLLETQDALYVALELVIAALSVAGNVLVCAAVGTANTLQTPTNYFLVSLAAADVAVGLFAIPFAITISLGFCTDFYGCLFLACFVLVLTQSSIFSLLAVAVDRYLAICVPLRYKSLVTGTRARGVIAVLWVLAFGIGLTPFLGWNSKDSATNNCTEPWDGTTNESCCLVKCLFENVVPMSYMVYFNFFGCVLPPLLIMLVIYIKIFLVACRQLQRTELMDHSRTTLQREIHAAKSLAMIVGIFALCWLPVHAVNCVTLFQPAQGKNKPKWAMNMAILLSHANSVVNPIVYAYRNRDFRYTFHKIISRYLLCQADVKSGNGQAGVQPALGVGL
Experimental: as §1, §2

human adenosine A3 receptor, sequence (P0DMS8 whole entry): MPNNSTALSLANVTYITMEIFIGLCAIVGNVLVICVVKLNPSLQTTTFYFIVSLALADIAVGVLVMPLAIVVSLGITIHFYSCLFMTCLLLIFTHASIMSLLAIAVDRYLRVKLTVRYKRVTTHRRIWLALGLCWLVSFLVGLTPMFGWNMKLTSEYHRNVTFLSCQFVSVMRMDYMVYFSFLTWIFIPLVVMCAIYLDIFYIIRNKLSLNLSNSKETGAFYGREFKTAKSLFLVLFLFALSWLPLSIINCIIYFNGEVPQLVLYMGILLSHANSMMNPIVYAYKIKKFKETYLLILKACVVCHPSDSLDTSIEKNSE

| Kb [1] [nM] | A3/A2b [1] | Kb [2] [nM] | A1/A2b [2] | Kb [3] [nM] | A2a/A2b [3] | Kb [4] [nM] | Compound |
| --- | --- | --- | --- | --- | --- | --- | --- |
| 22.9 | 16 | 57.6 | 41 | 277 | 198 | 1.4 | CNc1cc2nc(NCc3cccnc3)nc(C(=O)c3cccs3)c2s1 [Example 6, {6-Methylamino-2-[(pyridin-3-ylmethyl)-amino]-thieno[3,2-d]pyrimidin-4-yl}-thiophen-2-yl-methanone] |
| 130 | 20 | 19.4 | 3 | 318 | 49 | 6.5 | CN(C)c1cc2nc(NCc3cccnc3)nc(C(=O)c3cccs3)c2s1 [Example 7, {6-dimethylamino-2-[(pyridine-3-ylmethyl)-amino]-thieno[3,2-d]pyrimidin-4-yl}-thiophen-2-yl-methanone] |
| 37.3 | 6 | 118 | 18 | 726 | 109 | 6.7 | CCNc1cc2nc(NCc3cccnc3)nc(C(=O)c3cccs3)c2s1 [Example 8, {6-Ethylamino-2-[(pyridin-3-ylmethyl)-amino]-thieno[3,2-d]pyrimidin-4-yl}-thiophen-2-yl-methanone] |
| 233 | 33 | 1100 | 155 | 1400 | >196 | 7.1 | Nc1cc2nc(NCc3cccnc3)nc(C(=O)c3cccs3)c2s1 [Example 9, {6-Amino-2-[(pyridin-3-ylmethyl)-amino]-thieno[3,2-d]pyrimidin-4-yl}-thiophen-2-yl-methanone] |
| 747 | 14 | 161 | 3 | 3750 | >71 | 52.3 | C=Cc1cc2nc(NCc3cccnc3)nc(C(=O)c3cccs3)c2s1 [Example 10, {2-[(Pyridin-3-ylmethyl)-amino]-6-vinyl-thieno[3,2-d]pyrimidin-4-yl}-thiophen-2-yl-methanone] |
| 361 | 10 | 216 | 6 | 3750 | >102 | 36.7 | CCc1cc2nc(NCc3cccnc3)nc(C(=O)c3cccs3)c2s1 [Example 11, {6-Ethyl-2-[(pyridin-3-ylmethyl)-amino]-thieno[3,2-d]pyrimidin-4-yl}-thiophen-2-yl-methanone] |
| 308 | 4 | 256 | 4 | 828 | 12 | 68.9 | O=C(c1cccs1)c1nc(NCc2cccnc2)nc2cc(NCc3cccnc3)sc12 [Example 12, {6-(3-picolylamino)-2-[(pyridin-3-ylmethyl)-amino]-thieno[3,2-d]pyrimidin-4-yl}-thiophen-2-yl-methanone] |
